The Ki is the dissociation constant of the complex between target and ligand, obtained from inhibition or displacement. A word on the Kd: it is the equilibrium constant for the complex coming apart. Low readings indicate tighter binding, high ones weaker binding. For orientation: IC50 means the concentration needed to halve the response being measured.

Each structure is given as a SMILES string. Where a name gives a salt, the structure may show the parent alone. Read-outs that look alike come from different tables or passages of the source.

Experiment [1] concerns the target T1, BChE (Homo sapiens, UniProt P06276).
T1 construct: Purified human plasma wild-type BChE was a gift from Dr. Oksana Lockridge; tissue gift from Dr. Oksana Lockridge (University of Nebraska Medical Center); host or cells: human plasma
Kind of experiment: Inhibition of second-order substrate hydrolysis by BChE (inhibition constants KI). The experiment is classed as biochemical. The protocol: To further compare the binding sites of inhibitors with AChE and BChE, we employed an inhibitor competition assay. This assay is designed to detect any ternary complex formed when two inhibitors are added to AChE or BChE simultaneously. The assay is conducted with a substrate like acetylthiocholine whose second-order hydrolysis at low substrate concentrations is diffusion controlled and thus is inhibited by ligands that bind to either the A-site or the P-site (see Figure 7A below). Individual inhibition constants KI were obtained by plotting the ratios of the hydrolysis rate constant kE at various concentrations of one inhibitor (kE + I) to kE in the absence of inhibitor (kE [I] = 0) against inhibitor concentration. Inhibitor competition was then assessed by determining ratios of kE at a fixed concentration ([I1]) of inhibitor 1 and various concentrations ([I2]) of inhibitor 2 (kE + I2) to kE at the same [I1] in the absence of [I2] (kE [I2] = 0) and plotting these ratios against [I2]. These plots were analyzed with Equation (5) (described in the Materials and Methods Section 4.4) to obtain the relative affinity of I1 in its binary complex with enzyme E to I1 in a ternary complex with I2 and E (K12/K1). […].
For enzyme kinetics experiments, purified recombinant hAChE (~1500 units as determined by the supplier) was purchased from Sigma Aldrich (St. Louis, MO, USA). The AChE concentration was calculated using the assumption of 450 units/nmol (4.8 ∆A412/(min × nM)). Purified human plasma wild-type BChE was a gift from Dr. Oksana Lockridge (University of Nebraska Medical Center, Omaha, NE, USA). BChE concentration was calculated assuming 62.5 unit/nmol (0.94 ∆A412/(min × nM)). As defined previously, […] is the amount of BChE that gives 1.0 ∆A/min in the presence of 1.6 × 10^−4 M butyrylthiocholine in a 1.5 mL assay.
Inhibition constants for inhibitors of BChE were determined using a modification of a previously described method. Briefly, varying amounts of inhibitor (in 50 μL of 50% CH3CN(aq)) were added to 1.60 mL of buffer (0.09 M phosphate buffer, pH 8.0), 5,5′-dithio-bis (2-nitrobenzoic acid) (0.32 mM), and butyrylthiocholine substrate (5 μM) in a quartz cuvette of 1 cm path length, and the mixture was zeroed at 412 nm. The reaction was initiated by the addition of 50 μL of BChE (to 0.68 nM) in 0.1% aqueous gelatin. Assays were conducted at 23 °C. The absorbance (A), reflecting the cumulative hydrolysis of the substrate, was recorded every 5–20 s using an Ultraspec 2100 pro ultra violet (UV)-visible spectrophotometer (Fisher Scientific, Toronto, ON, Canada) equipped with Swift II application software. […]
In Equation (1), A412 is absorbance, [E]tot is the total enzyme concentration, kobs = kE[E]tot, and ΔA412 = A412(final) − A412(t = 0). […]

The target of experiment [2] is T1, BChE. Particulars: in the presence of thioflavin T; cited from earlier work.
In experiment [3] the target is hBChE (Homo sapiens, UniProt P06276, N45Q/N483Q/N509Q/N514Q). Kind of experiment: biochemical. The experiment is classed as binding. Particulars: for n (±SD), binding stoichiometry / ΔG (±SD), Gibbs free energy of binding / ΔH (±SD), binding heat: hBChE, ITC, 25 °C, pH 7.4.
Experiment [4] deals with hBChE. Kind of experiment: biochemical. The format is binding. As to conditions: ITC KD, hAChE vs hBChE.
In experiment [5] the test system is AChE. As to conditions: cited from earlier work.
Experiment [6] deals with T2, hAChE (Homo sapiens, UniProt P22303). Kind of experiment: biochemical. The experiment is classed as binding. Particulars: for n (±SD), binding stoichiometry / ΔG (±SD), Gibbs free energy of binding / ΔH (±SD), binding heat: hAChE, ITC, 25 °C, pH 8.0.
Experiment [7] concerns the target T1, BChE. Details: method as in PMID 22901043. Particulars: cited from earlier work.
Experiment [8] concerns hBChE. As to conditions: specificity for BChE; cited from earlier work.
The target of experiment [9] is T2, hAChE. Particulars: read-out: AChE KI, recalculated from data obtained in ref 23; cited from earlier work.
The target of experiment [10] is T1, BChE. The format is biochemical. As to conditions: binding site competition ratio of each inhibitor (I1) in the presence of decamethonium (I2), >> 1 denotes competition at the same site.
Method: This assay is designed to detect any ternary complex formed when two inhibitors are added to AChE or BChE simultaneously [15, 23, 34, 41, 42, 43]. The assay is conducted with a substrate like acetylthiocholine whose second-order hydrolysis at low substrate concentrations is diffusion controlled and thus is inhibited by ligands that bind to either the A-site or the P-site [15] […] Inhibitor competition was then assessed by determining ratios of kE at a fixed concentration ([I1]) of inhibitor 1 and various concentrations ([I2]) of inhibitor 2 (kE + I2) to kE at the same [I1] in the absence of [I2] (kE [I2] = 0) and plotting these ratios against [I2]. These plots were analyzed with Equation (5) (described in the Materials and Methods Section 4.4) to obtain the relative affinity of I1 in its binary complex with enzyme E to I1 in a ternary complex with I2 and E (K12/K1).
Determining rates of substrate hydrolysis in the presence of two inhibitors provides information that indicates whether these inhibitors are interacting with the same or different enzyme binding sites [15]. […]
In this equation, K1, K2, and K12 are the equilibrium dissociation constants for I1 with E, I2 with E, and I1 with the E I2 complex, respectively. Individual inhibition constants (e.g., K2) could be determined from Equation (5) with [I1] fixed at 0. […]
The subject of experiment [11] is BChE. As to conditions: cited from earlier work.
In experiment [12] the test system is AChE. Particulars: cited from earlier work. This is another data set of the same source.

Chain of hBChE (Homo sapiens, UniProt P06276, N45Q/N483Q/N509Q/N514Q) (P06276 29-557 N45Q/N483Q/N509Q/N514Q): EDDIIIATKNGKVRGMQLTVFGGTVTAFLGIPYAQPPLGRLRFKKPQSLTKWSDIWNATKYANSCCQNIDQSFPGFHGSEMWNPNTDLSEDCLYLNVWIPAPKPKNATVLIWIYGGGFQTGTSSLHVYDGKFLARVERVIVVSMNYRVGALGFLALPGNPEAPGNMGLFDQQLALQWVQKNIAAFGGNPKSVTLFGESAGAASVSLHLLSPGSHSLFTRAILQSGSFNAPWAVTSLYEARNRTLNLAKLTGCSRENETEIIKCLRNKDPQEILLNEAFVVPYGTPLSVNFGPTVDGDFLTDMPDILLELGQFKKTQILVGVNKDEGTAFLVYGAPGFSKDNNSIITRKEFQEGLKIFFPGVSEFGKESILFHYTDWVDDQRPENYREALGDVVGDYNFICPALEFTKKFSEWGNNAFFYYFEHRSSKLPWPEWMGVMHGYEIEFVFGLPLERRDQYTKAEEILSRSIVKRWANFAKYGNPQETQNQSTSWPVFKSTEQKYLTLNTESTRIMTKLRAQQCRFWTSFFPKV
T2 sequence (P22303 32-574): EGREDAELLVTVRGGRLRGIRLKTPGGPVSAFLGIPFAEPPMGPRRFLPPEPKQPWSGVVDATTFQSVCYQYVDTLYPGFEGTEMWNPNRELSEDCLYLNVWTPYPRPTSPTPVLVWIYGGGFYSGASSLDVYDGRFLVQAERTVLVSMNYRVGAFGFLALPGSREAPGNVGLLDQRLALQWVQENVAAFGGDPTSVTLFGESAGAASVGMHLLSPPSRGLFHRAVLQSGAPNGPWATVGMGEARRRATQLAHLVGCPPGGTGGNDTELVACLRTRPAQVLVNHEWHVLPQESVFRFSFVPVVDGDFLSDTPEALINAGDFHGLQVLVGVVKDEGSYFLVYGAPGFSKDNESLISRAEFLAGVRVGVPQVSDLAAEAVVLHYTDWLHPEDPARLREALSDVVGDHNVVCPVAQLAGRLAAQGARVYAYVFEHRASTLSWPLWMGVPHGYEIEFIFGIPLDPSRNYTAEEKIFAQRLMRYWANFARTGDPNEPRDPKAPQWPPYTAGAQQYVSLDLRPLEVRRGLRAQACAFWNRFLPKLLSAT
T1 sequence (P06276 29-602): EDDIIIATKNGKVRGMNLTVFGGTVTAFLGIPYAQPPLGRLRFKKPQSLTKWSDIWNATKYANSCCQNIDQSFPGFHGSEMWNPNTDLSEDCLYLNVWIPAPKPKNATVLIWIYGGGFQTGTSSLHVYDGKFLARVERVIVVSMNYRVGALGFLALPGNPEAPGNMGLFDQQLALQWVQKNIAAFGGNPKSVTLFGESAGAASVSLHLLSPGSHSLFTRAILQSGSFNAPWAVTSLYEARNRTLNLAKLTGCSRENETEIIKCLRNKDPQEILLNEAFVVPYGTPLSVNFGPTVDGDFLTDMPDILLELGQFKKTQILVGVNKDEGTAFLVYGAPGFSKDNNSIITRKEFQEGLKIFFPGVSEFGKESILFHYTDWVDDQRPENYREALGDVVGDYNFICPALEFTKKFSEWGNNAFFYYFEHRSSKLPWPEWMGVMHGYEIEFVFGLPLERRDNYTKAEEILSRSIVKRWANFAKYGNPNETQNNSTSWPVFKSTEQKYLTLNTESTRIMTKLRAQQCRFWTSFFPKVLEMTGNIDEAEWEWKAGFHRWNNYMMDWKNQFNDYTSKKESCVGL

As for `C[N+](C)(C)CCCCCCCCCC[N+](C)(C)C` [Decamethonium, decamethonium bromide], on BChE [1], the inhibitory constant (Ki) is 4.5 ± 0.2 µM.
Take `CC[N+](C)(C)c1cccc(O)c1` [Edrophonium, edrophonium chloride]: the “BChE K12/K1 competition class” value on BChE [2] was “PC (intermediate ratios indicate partial competition (PC))”. Moreover, the Kd on hBChE [3] turned out to be 27.2 ± 2.4 µM. The “n (±SD), binding stoichiometry” value is on record as 0.9 ± 0.1 at hBChE [3], ~ 1 on hBChE [3] (listed as edrophonium), 0.8 ± 0.3 at hAChE [6] and ~ 1 on hAChE [6] (listed as edrophonium). Besides, the “ΔG (±SD), Gibbs free energy of binding” value on hBChE [3] is -6.24 ± 0.072 kcal/mol; at hAChE [6], -8.03 ± 0.19 kcal/mol. Also, the “ΔH (±SD), binding heat” value on hBChE [3] is -3.01 ± 0.406 kcal/mol; at hAChE [6], -6.31 ± 1.89 kcal/mol. In addition, the “difference in KD values between AChE and BChE” value with hBChE [4] was roughly 20 fold. In addition, the “AChE K12/K1” value in the experiment with AChE [5] (binding site competition ratio in the presence of thioflavin T, recalculated from data obtained in ref 23) is 2.9 ± 0.2. In the experiment on AChE [5] (in the presence of thioflavin T), the “AChE K12/K1 competition class” value is “NC (A K12/K1 ratio of ~1 indicates no competition at binding sites (NC))”. In addition, the Ki on BChE [7] (BChE, updated from data in ref 23) was 49 ± 3 µM; on BChE [7] (read-out: BChE KI, hBChE, recalculated from data obtained in ref 23), 49 ± 3 µM.
Take `CCN(CC)C(C)CN1c2ccccc2Sc2ccccc21` (centres unmarked) [Ethopropazine, ethopropazine hydrochloride]: on hBChE [3], the affinity, expressed as Kd, was 1.1 ± 0.1 µM; the “n (±SD), binding stoichiometry” value is 1.0 ± 0.1; the “ΔG (±SD), Gibbs free energy of binding” value was -8.15 ± 0.048 kcal/mol; the “ΔH (±SD), binding heat” value was -10.4 ± 1.53 kcal/mol. The “n (±SD), binding stoichiometry” value at hBChE [3] (listed as ethopropazine) is listed as ~ 1. Moreover, in the experiment with hBChE [4], the “difference in KD values between AChE and BChE” value is reported as roughly 20 fold. The “difference in Ki between hAChE and hBChE” value in the experiment with hBChE [8] is 9000 fold.
As for `Cc1ccc2c(c1)sc(-c1ccc(N(C)C)cc1)[n+]2C` [Thioflavin-T, ThT chloride], at hAChE [9], the Ki is 3.9 ± 0.4 µM. Besides, the Ki at BChE [1] (BChE 0.68 nM, butyrylthiocholine 5 µM, second-order dependence on inhibitor concentration, read-out: KI (fitted with Equation (4))) is 1.61 ± 0.11 µM. Also, the “KII (fitted with Equation (4))” value at BChE [1] (BChE 0.68 nM, butyrylthiocholine 5 µM, second-order term) came to 5.84 ± 0.16 µM^2. Also, the “KI12/KI1 (maximum for the affinity in the binary complex relative to that in the ternary complex)” value on BChE [1] (BChE, two molecules of inhibitor, maximum reached when KI1 = KI2) is 0.56 ± 0.04. Also, at hBChE [3], the affinity, expressed as Kd, was 2.6 ± 0.5 µM; the “n (±SD), binding stoichiometry” value amounted to 2.2 ± 0.1; the “ΔG (±SD), Gibbs free energy of binding” value was -7.65 ± 0.14 kcal/mol; the “ΔH (±SD), binding heat” value was -2.72 ± 0.14 kcal/mol. Besides, in the experiment on hBChE [4], the “difference in KD values between AChE and BChE” value is given as “about 7 fold”. Besides, at hAChE [6], the affinity, expressed as Kd, was 17.7 µM; the “n (±SD), binding stoichiometry” value stood at 1; the “ΔG (±SD), Gibbs free energy of binding” value was -6.5 kcal/mol; the “ΔH (±SD), binding heat” value was -5.66 kcal/mol. Moreover, the “n (±SD), binding stoichiometry” value on hAChE [6] (listed as ThT) was ~ 1. The K12/K1 on BChE [10] was greater than 200.
Regarding `NCCC1=CC2Cc3nc4cc(Cl)ccc4c(N)c3C(C1)C2` (centres unmarked) [huprine 19], the IC50 in the experiment with BChE [11] is 0.9 µM.
On to `Nc1c2c(nc3cc(Cl)ccc13)C[C@H]1C=C(CCO)C[C@@H]2C1` [huprine W], for which the values for the IC50 in the experiment with AChE [12] and in the experiment on BChE [11] were 0.0011 µM and 1.2 µM, respectively.

The record behind these values is PMC6149722, “Comparison of the Binding of Reversible Inhibitors to Human Butyrylcholinesterase and Acetylcholinesterase: A Crystallographic, Kinetic and Calorimetric Study” (Molecules : A Journal of Synthetic Chemistry and Natural …, 2017).
